From ChEMBL document CHEMBL1146623, “Two antiviral compounds from the plant Stylogne cauliflora as inhibitors of HCV NS3 protease” (Bioorg Med Chem Lett, 2003)

What was measured:
NS3 [1] = molecular target: T1, NS3 (Hepatitis C virus, UniProt A3EZJ3); assay: Inhibitory activity evaluated in the HCV NS3 protease activity assay; design: species or system Hepacivirus hominis
NS3 [2] = molecular target: T1, NS3; assay: Inhibitory activity evaluated in the HCV NS3 protease assay; design: species or system Hepacivirus hominis

T1 sequence (A3EZJ3 whole entry): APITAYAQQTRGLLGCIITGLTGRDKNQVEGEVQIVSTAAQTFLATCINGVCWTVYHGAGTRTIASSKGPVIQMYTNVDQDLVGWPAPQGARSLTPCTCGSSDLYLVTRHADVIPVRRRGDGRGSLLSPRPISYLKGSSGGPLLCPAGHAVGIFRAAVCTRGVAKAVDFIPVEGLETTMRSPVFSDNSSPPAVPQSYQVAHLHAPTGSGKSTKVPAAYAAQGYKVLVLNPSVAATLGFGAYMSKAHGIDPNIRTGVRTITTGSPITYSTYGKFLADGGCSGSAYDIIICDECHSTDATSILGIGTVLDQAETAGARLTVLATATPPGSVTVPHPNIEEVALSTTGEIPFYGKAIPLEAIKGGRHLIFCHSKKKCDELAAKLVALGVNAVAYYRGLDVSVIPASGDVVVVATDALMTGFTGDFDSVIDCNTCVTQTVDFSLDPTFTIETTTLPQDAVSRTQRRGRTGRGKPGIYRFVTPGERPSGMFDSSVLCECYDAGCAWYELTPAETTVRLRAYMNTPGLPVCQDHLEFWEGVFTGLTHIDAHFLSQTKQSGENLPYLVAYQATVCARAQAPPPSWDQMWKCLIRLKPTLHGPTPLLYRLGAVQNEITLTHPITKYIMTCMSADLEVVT

SMILES	IC50 (NS3 [1])	IC50 (NS3 [2])
O=C1OC[C@H]2O[C@@H](Oc3cc(O)c4c(c3)OC(c3ccccc3)CC4=O)[C@H](O)[C@@H](O)[C@@H]2OC(=O)c2cc(O)c(O)c(O)c2-c2c1cc(O)c(O)c2O (some centres not stated)	300 nM	–
O=C1OC[C@H]2O[C@@H](Oc3cc(O)c(C(=O)CCc4ccccc4)c(O)c3)[C@H](O)[C@@H](O)[C@@H]2OC(=O)c2cc(O)c(O)c(O)c2-c2c1cc(O)c(O)c2O [THONNINGIANIN B]	–	800 nM
